From the supplement of paper PMC10307832

Experiments:
Test in all cases: relative viability (nuclei count vs DMSO), 5 days (fraction); higher = more cells survive
HCC-366 = test system: HCC-366
Method in brief: (§1)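 For relative viability, nuclei counts in treated wells were divided by those in vehicle wells. Lung cancer cell lines had been pin-tool dosed in 1536-well plates the day after seeding and cultured for 5 days, then fixed and stained in one step (final 0.05% Triton X-100, 1% formaldehyde, 1 ug/ml Hoechst) and imaged at 4×. Doses were one drug alone or a fixed anchor-drug dose plus five library-drug doses (not always all listed) in √10 steps, and values are duplicate-plate medians.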

NCI-H2342 = test system: NCI-H2342
Method in brief: as §1

NCI-H1734 = test system: NCI-H1734
Method in brief: as §1

CAL-12T = test system: CAL-12T
Method in brief: as §1

NCI-H1563 = test system: NCI-H1563
Method in brief: as §1

NCI-H1650 = test system: NCI-H1650
Method in brief: as §1

NCI-H1651 = test system: NCI-H1651
Method in brief: as §1

NCI-H460 = test system: NCI-H460
Method in brief: as §1

NCI-H1395 = test system: NCI-H1395
Method in brief: as §1

NCI-H838 = test system: NCI-H838
Method in brief: as §1

LU99A = test system: LU99A
Method in brief: as §1

LOU-NH91 = test system: LOU-NH91
Method in brief: as §1

NCI-H1355 = test system: NCI-H1355
Method in brief: as §1

NCI-H2023 = test system: NCI-H2023
Method in brief: as §1

BEN = test system: BEN
Method in brief: as §1

HCC-44 = test system: HCC-44
Method in brief: as §1

NCI-H1437 = test system: NCI-H1437
Method in brief: as §1

NCI-H1975 = test system: NCI-H1975
Method in brief: as §1

NCI-H1755 = test system: NCI-H1755
Method in brief: as §1

NCI-H441 = test system: NCI-H441
Method in brief: as §1

NCI-H358 = test system: NCI-H358
Method in brief: as §1

EKVX = test system: EKVX
Method in brief: as §1

NCI-H2085 = test system: NCI-H2085
Method in brief: as §1

NC(=O)Nc1cc(-c2cccc(F)c2)sc1C(=O)N[C@H]1CCCNC1 [AZD7762] + COc1cccc2cc(-c3nc([C@H]4CC[C@H](C(=O)O)CC4)n4ncnc(N)c34)[nH]c12 [OSI-027] (partner 0.5 µM)
relative viability (HCC-366; first compound 0.01 µM): 1.02
relative viability (HCC-366; first compound 0.03162 µM): 0.896
relative viability (HCC-366; first compound 0.1 µM): 0.985
relative viability (HCC-366; first compound 0.3162 µM): 0.869
relative viability (HCC-366; first compound 1 µM): 0.122
relative viability (NCI-H2342; first compound 0.01 µM): 0.612
relative viability (NCI-H2342; first compound 0.03162 µM): 0.714
relative viability (NCI-H2342; first compound 0.1 µM): 0.611
relative viability (NCI-H2342; first compound 0.3162 µM): 0.586
relative viability (NCI-H2342; first compound 1 µM): 0.588
relative viability (NCI-H1734; first compound 0.01 µM): 0.638
relative viability (NCI-H1734; first compound 0.03162 µM): 0.704
relative viability (NCI-H1734; first compound 0.1 µM): 0.642
relative viability (NCI-H1734; first compound 0.3162 µM): 0.374
relative viability (NCI-H1734; first compound 1 µM): 0.238
relative viability (CAL-12T; first compound 0.01 µM): 0.676
relative viability (CAL-12T; first compound 0.03162 µM): 0.73
relative viability (CAL-12T; first compound 0.1 µM): 0.768
relative viability (CAL-12T; first compound 0.3162 µM): 0.487
relative viability (CAL-12T; first compound 1 µM): 0.124
relative viability (NCI-H1563; first compound 0.01 µM): 0.792
relative viability (NCI-H1563; first compound 0.03162 µM): 0.781
relative viability (NCI-H1563; first compound 0.1 µM): 0.748
relative viability (NCI-H1563; first compound 0.3162 µM): 0.804
relative viability (NCI-H1563; first compound 1 µM): 0.771
relative viability (NCI-H1650; first compound 0.01 µM): 0.688
relative viability (NCI-H1650; first compound 0.03162 µM): 0.638
relative viability (NCI-H1650; first compound 0.1 µM): 0.708
relative viability (NCI-H1650; first compound 0.3162 µM): 0.425
relative viability (NCI-H1650; first compound 1 µM): 0.206
relative viability (NCI-H1651; first compound 0.01 µM): 0.76
relative viability (NCI-H1651; first compound 0.03162 µM): 0.637
relative viability (NCI-H1651; first compound 0.1 µM): 0.653
relative viability (NCI-H1651; first compound 0.3162 µM): 0.637
relative viability (NCI-H1651; first compound 1 µM): 0.193
relative viability (NCI-H460; first compound 0.01 µM): 0.861
relative viability (NCI-H460; first compound 0.03162 µM): 0.751
relative viability (NCI-H460; first compound 0.1 µM): 0.649
relative viability (NCI-H460; first compound 0.3162 µM): 0.463
relative viability (NCI-H460; first compound 1 µM): 0.0347
relative viability (NCI-H1395; first compound 0.01 µM): 0.727
relative viability (NCI-H1395; first compound 0.03162 µM): 0.74
relative viability (NCI-H1395; first compound 0.1 µM): 0.708
relative viability (NCI-H1395; first compound 0.3162 µM): 0.458
relative viability (NCI-H1395; first compound 1 µM): 0.363
relative viability (NCI-H838; first compound 0.01 µM): 0.429
relative viability (NCI-H838; first compound 0.03162 µM): 0.374
relative viability (NCI-H838; first compound 0.1 µM): 0.415
relative viability (NCI-H838; first compound 0.3162 µM): 0.413
relative viability (NCI-H838; first compound 1 µM): 0.297
relative viability (LU99A; first compound 0.01 µM): 0.323
relative viability (LU99A; first compound 0.03162 µM): 0.365
relative viability (LU99A; first compound 0.1 µM): 0.352
relative viability (LU99A; first compound 0.3162 µM): 0.326
relative viability (LU99A; first compound 1 µM): 0.217
relative viability (LOU-NH91; first compound 0.01 µM): 0.735
relative viability (LOU-NH91; first compound 0.03162 µM): 0.749
relative viability (LOU-NH91; first compound 0.1 µM): 0.692
relative viability (LOU-NH91; first compound 0.3162 µM): 0.638
relative viability (LOU-NH91; first compound 1 µM): 0.554
relative viability (NCI-H1355; first compound 0.01 µM): 0.389
relative viability (NCI-H1355; first compound 0.03162 µM): 0.489
relative viability (NCI-H1355; first compound 0.1 µM): 0.515
relative viability (NCI-H1355; first compound 0.3162 µM): 0.443
relative viability (NCI-H1355; first compound 1 µM): 0.418
relative viability (NCI-H2023; first compound 0.01 µM): 0.405
relative viability (NCI-H2023; first compound 0.03162 µM): 0.331
relative viability (NCI-H2023; first compound 0.1 µM): 0.216
relative viability (NCI-H2023; first compound 0.3162 µM): 0.116
relative viability (NCI-H2023; first compound 1 µM): 0.105
relative viability (BEN; first compound 0.01 µM): 0.284
relative viability (BEN; first compound 0.03162 µM): 0.297
relative viability (BEN; first compound 0.1 µM): 0.305
relative viability (BEN; first compound 0.3162 µM): 0.287
relative viability (BEN; first compound 1 µM): 0.246
relative viability (HCC-44; first compound 0.01 µM): 0.718
relative viability (HCC-44; first compound 0.03162 µM): 0.579
relative viability (HCC-44; first compound 0.1 µM): 0.712
relative viability (HCC-44; first compound 0.3162 µM): 0.65
relative viability (HCC-44; first compound 1 µM): 0.491
relative viability (NCI-H1437; first compound 0.01 µM): 0.888
relative viability (NCI-H1437; first compound 0.03162 µM): 0.833
relative viability (NCI-H1437; first compound 0.1 µM): 0.974
relative viability (NCI-H1437; first compound 0.3162 µM): 0.87
relative viability (NCI-H1437; first compound 1 µM): 0.695
relative viability (NCI-H1975; first compound 0.01 µM): 0.687
relative viability (NCI-H1975; first compound 0.03162 µM): 0.73
relative viability (NCI-H1975; first compound 0.1 µM): 0.637
relative viability (NCI-H1975; first compound 0.3162 µM): 0.615
relative viability (NCI-H1975; first compound 1 µM): 0.397
relative viability (NCI-H1755; first compound 0.01 µM): 0.826
relative viability (NCI-H1755; first compound 0.03162 µM): 0.845
relative viability (NCI-H1755; first compound 0.1 µM): 0.722
relative viability (NCI-H1755; first compound 0.3162 µM): 0.712
relative viability (NCI-H1755; first compound 1 µM): 0.44
relative viability (NCI-H441; first compound 0.01 µM): 0.765
relative viability (NCI-H441; first compound 0.03162 µM): 0.819
relative viability (NCI-H441; first compound 0.1 µM): 0.944
relative viability (NCI-H441; first compound 0.3162 µM): 0.799
relative viability (NCI-H441; first compound 1 µM): 0.59
relative viability (NCI-H358; first compound 0.01 µM): 0.956
relative viability (NCI-H358; first compound 0.03162 µM): 0.838
relative viability (NCI-H358; first compound 0.1 µM): 0.839
relative viability (NCI-H358; first compound 0.3162 µM): 0.75
relative viability (NCI-H358; first compound 1 µM): 0.461
relative viability (EKVX; first compound 0.01 µM): 0.726
relative viability (EKVX; first compound 0.03162 µM): 0.75
relative viability (EKVX; first compound 0.1 µM): 0.653
relative viability (EKVX; first compound 0.3162 µM): 0.604
relative viability (EKVX; first compound 1 µM): 0.628
relative viability (NCI-H2085; first compound 0.01 µM): 0.603
relative viability (NCI-H2085; first compound 0.03162 µM): 0.871
relative viability (NCI-H2085; first compound 0.1 µM): 0.836
relative viability (NCI-H2085; first compound 0.3162 µM): 0.765
relative viability (NCI-H2085; first compound 1 µM): 0.554
